7 compounds from patent US9199949B2, “Selective glycosidase inhibitors and uses thereof” (Alectos Therapeutics Inc., priority 2011, dated 2015) can be followed below.

Series [1] deals with human O-GlcNAcase (Homo sapiens (Human), UniProt O60502). The series is described as follows: Assay for determination of KI values for inhibition of O-GlcNAcase activity (fluorescence-based hOGA). The conditions noted are these: purified human O-GlcNAcase, 4-Methylumbelliferyl N-acetyl-β-D-glucosaminide substrate, pH 7.0, Cheng-Prusoff. It counts as biochemical. The method, then: Experimental Procedure for Kinetic Analyses: Enzymatic reactions were carried out in a reaction containing 50 mM NaH2PO4, 100 mM NaCl and 0.1% BSA (pH 7.0) using 2 mM 4-Methylumbelliferyl N-acetyl-β-D-glucosaminide dihydrate (Sigma M2133) dissolved in ddH2O, as a substrate. The amount of purified human O-GlcNAcase enzyme used in the reaction was 0.7 nM. Test compound of varying concentrations was added to the enzyme prior to initiation of the reaction. The reaction was performed at room temperature in a 96-well plate and was initiated with the addition of substrate. […] The slope of product production was determined for each concentration of compound tested and plotted, using standard curve fitting algorithms for sigmoidal dose response curves. The values for a four parameter logistic curve fit of the data were determined.
human O-GlcNAcase, sequence (O60502 whole entry): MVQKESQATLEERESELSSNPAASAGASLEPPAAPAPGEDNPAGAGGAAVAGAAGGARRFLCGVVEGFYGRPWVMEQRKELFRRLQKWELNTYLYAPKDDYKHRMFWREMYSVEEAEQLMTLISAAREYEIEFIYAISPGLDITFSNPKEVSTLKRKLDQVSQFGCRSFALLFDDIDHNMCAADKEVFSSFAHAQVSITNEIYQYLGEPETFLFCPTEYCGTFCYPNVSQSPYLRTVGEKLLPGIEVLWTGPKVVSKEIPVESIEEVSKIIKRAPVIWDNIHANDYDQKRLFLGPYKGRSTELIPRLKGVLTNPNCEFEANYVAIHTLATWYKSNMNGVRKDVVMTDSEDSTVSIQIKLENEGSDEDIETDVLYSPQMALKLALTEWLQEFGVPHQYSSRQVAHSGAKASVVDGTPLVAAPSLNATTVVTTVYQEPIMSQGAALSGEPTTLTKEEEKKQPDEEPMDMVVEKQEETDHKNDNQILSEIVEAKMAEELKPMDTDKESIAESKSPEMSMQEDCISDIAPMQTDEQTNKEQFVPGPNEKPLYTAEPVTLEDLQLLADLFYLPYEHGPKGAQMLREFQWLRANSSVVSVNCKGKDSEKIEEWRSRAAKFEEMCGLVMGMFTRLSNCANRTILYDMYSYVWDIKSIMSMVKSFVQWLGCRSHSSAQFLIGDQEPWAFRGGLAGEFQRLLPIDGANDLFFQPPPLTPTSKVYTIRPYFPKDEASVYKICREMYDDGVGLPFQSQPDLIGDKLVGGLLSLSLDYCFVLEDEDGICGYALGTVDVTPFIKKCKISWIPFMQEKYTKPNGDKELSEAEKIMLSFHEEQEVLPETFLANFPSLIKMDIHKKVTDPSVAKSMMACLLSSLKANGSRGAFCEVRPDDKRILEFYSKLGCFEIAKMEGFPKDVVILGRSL

Series [2] in a line: Assay for determination of apparent permeability (Papp) in LLC-PK1 cells. It counts as in vitro ADME. The conditions noted are these: pig, t=3 h, average of A to B and B to A. The method, then:
Bi-directional transport was evaluated in LLC-PK1 cells in order to determine apparent permeability (Papp). LLC-PK1 cells can form a tight monolayer and therefore can be used to assess vectorial transport of compounds from basolateral to apical (B→A) and from apical to basolateral (A→B).
To determine Papp, LLC-PK1 cells were cultured in 96-well transwell culture plates (Millipore). Solutions containing the test compounds (1 μM) were prepared in Hank's Balanced Salt Solution with 10 mM HEPES. Substrate solution (150 μL) was added to either the apical (A) or the basolateral (B) compartment of the culture plate, and buffer (150 μL) was added to the compartment opposite to that containing the compound. At t=3 h, 50 μL samples were removed from both sides of monolayers dosed with test compound and placed in 96 well plates, scintillant (200 μL) or internal standard (100 μL labetolol 1 μM) was added to the samples and concentration was determined by liquid scintillation counting in a MicroBeta Wallac Trilux scintillation counter (Perkin Elmer Life Sciences, Boston, Mass.) or by LCMS/MS (Applied Biosystems SCIEX API 5000 triple quadruple mass spectrometer). [^3H]Verapamil (1 μM) was used as the positive control. The experiment was performed in triplicate.
[formula] Where: Volume of Receptor Chamber was 0.15 mL; Area of membrane was 0.11 cm^2; the Initial Concentration is the sum of the concentration measured in the donor plus concentration measured in receiver compartments at t=3 h; Δ in Concentration is concentration in the receiver compartment at 3 h; and Δ in Time is the incubation time (3×60×60=10800 s). Papp was expressed as 10^−6 cm/s.

Series [3] deals with O-GlcNAcase (Rattus norvegicus (Rat), UniProt Q8VIJ5). As to the kind of experiment: Cell-based ELISA for cellular activity of O-GlcNAcase inhibitors (O-GlcNAcylated protein, RL-2 antibody). The note with it: rat PC-12 cells, 24 h treatment, O-GlcNAcylated protein by RL-2 ELISA. The method, then:
Inhibition of O-GlcNAcase, which removes O-GlcNAc from cellular proteins, results in an increase in the level of O-GlcNAcylated protein in cells. An increase in O-GlcNAcylated protein can be measured by an antibody, such as RL-2, that binds to O-GlcNAcylated protein. The amount of O-GlcNAcylated protein:RL2 antibody interaction can be measured by enzyme linked immunosorbant assay (ELISA) procedures.
Compounds to be tested were dissolved in DMSO, either 2 or 10 mM stock solution, and then diluted with DMSO and water in a two-step process using a Tecan workstation. […] To prepare a cell lysate, the media from compound treated cells was removed, the cells were washed once with phosphate buffered saline (PBS) and then lysed for 5 minutes at room temperature in 50 μL of Phosphosafe reagent (Novagen Inc, Madison, Wis.) with protease inhibitors and PMSF. The cell lysate was collected and transferred to a new plate, which was then either coated to assay plates directly or frozen −80° C. until used in the ELISA procedure. If desired, the total protein concentration of samples was determined using 20 μL of the sample using the BCA method.
The ELISA portion of the assay was performed in a black Maxisorp 96-well plate that was coated overnight at 4° C. with 100 μL/well of the cell lysate (1:10 dilution of the lysate with PBS containing protease inhibitors, phosphatase inhibitors, and PMSF). The following day the wells were washed 3 times with 300 μL/well of Wash buffer (Tris-buffered saline with 0.1% Tween 20).
The amount of O-GlcNAcylated protein, as detected by the ELISA assay, was plotted for each concentration of test compound using standard curve fitting algorithms for sigmoidal dose response curves. The values for a four parameter logistic curve fit of the data were determined, with the inflection point of the curve being the potency value for the test compound.

One may read the Ki as the dissociation constant of the complex between target and ligand, obtained from inhibition or displacement. High values mean a looser hold on the target, low ones a stronger hold on the target. Broadly, the Papp is the rate of passage across a membrane or cell layer, normalised by area and donor concentration. As usually defined, the EC50 is the concentration needed to bring the measured effect to its halfway point.

O-GlcNAcase, sequence (Q8VIJ5 whole entry): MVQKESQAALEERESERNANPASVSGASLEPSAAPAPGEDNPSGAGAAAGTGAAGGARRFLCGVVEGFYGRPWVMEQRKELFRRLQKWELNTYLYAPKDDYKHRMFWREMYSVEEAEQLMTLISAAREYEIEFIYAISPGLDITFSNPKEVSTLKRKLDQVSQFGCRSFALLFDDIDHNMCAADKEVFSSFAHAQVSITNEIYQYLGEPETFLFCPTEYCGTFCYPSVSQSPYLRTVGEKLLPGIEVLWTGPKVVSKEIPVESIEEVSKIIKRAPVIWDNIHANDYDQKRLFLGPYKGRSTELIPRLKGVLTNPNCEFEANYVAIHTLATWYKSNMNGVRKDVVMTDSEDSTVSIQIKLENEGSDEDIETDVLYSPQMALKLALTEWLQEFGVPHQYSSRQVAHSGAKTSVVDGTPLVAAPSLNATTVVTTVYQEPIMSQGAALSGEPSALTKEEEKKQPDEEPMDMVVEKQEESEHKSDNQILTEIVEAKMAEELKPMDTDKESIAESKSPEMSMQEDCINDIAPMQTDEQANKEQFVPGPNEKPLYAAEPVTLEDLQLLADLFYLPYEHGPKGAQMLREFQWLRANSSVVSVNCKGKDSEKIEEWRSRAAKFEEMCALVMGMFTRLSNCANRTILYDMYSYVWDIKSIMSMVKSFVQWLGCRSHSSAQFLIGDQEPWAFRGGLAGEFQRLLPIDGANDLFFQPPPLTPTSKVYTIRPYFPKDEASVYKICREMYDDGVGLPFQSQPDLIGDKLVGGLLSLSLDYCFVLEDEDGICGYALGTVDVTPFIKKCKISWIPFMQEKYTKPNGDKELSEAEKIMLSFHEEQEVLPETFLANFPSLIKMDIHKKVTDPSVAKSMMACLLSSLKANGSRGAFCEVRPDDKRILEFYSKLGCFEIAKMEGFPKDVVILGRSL

`O[C@H]1[C@@H](F)[C@H]2N=C(N3CCC3)O[C@H]2C[C@@H]1C(F)F` [Example 15, (3aS,4S,5R,6S,7aS)-2-(azetidin-1-yl)-6-(difluoromethyl)-4-fluoro-3a,4,5,6,7,7a-hexahydrobenzo[d]oxazol-5-ol] had a Ki in series [1] of 20.5 nM. In addition, in series [2], the Papp at 3 h, 1 μM amounted to 6.5 ×10⁻⁶ cm/s.
On to `CNC1=N[C@@H]2[C@@H](O)[C@H](O)[C@@H](CF)C[C@@H]2O1` [Example 2, (3aR,4R,5R,6S,7aS)-6-(fluoromethyl)-2-(methylamino)-3a,4,5,6,7,7a-hexahydrobenzo[d]oxazole-4,5-diol], for which the Papp at 3 h, 1 μM in series [2] was 6.5 ×10⁻⁶ cm/s.
In series [1], `CNC1=N[C@@H]2[C@H](F)[C@H](O)[C@@H](CO)C[C@@H]2O1` [Example 12, (3aS,4S,5R,6R,7aS)-4-fluoro-6-(hydroxymethyl)-2-(methylamino)-3a,4,5,6,7,7a-hexahydrobenzo[d]oxazol-5-ol] yielded a Ki of 8.6 nM. Further, in series [2], the Papp at 3 h, 1 μM stood at 2.2 ×10⁻⁶ cm/s.
As to `OC[C@H]1C[C@@H]2OC(N3CCC3)=N[C@@H]2[C@H](F)[C@@H]1O` [Example 10, (3aS,4S,5R,6R,7aS)-2-(azetidin-1-yl)-4-fluoro-6-(hydroxymethyl)-3a,4,5,6,7,7a-hexahydrobenzo[d]oxazol-5-ol], in series [1], the affinity, expressed as Ki, was 7 nM. This counts as single-digit nanomolar.
In series [1], `O[C@@H]1[C@@H](CF)C[C@@H]2OC(N3CCC3)=N[C@@H]2[C@H]1O` [Example 4, (3aR,4R,5R,6S,7aS)-2-(azetidin-1-yl)-6-(fluoromethyl)-3a,4,5,6,7,7a-hexahydrobenzo[d]oxazole-4,5-diol] registered an inhibition constant Ki of 1.1 nM. In addition, the Papp at 3 h, 1 μM in series [2] came to 5.1 ×10⁻⁶ cm/s. Moreover, the EC50 in series [3] was found to be 5.2 nM.
In the same order, the values of `CNC1=N[C@@H]2[C@@H](O)[C@H](O)[C@@H](C(F)F)C[C@@H]2O1` [Example 8, (3aR,4R,5R,6S,7aS)-6-(difluoromethyl)-2-(methylamino)-3a,4,5,6,7,7a-hexahydrobenzo[d]oxazole-4,5-diol] are 1.4 nM, 2.7 ×10⁻⁶ cm/s and 4.7 nM.
In the same order, the values of `O[C@H]1[C@H](O)[C@@H](C(F)F)C[C@@H]2OC(N3CCC3)=N[C@H]12` [Example 6, (3aR,4R,5R,6S,7aS)-2-(azetidin-1-yl)-6-(difluoromethyl)-3a,4,5,6,7,7a-hexahydrobenzo[d]oxazole-4,5-diol] are 0.7 nM, 2.8 ×10⁻⁶ cm/s and 5.1 nM.
